B1: mAb II-481: IgG-2b mouse mAb directed at gE of HSV-1 (antibody, V domains shown)
VH: GILQPSQTLSLTCSFSGFSLTTYGIGVGWIRQPSGKGLEWLAHIWWNDNKFYNTVLKSRLTISRDTSNNQVFLRIASMDTADTATYYCARMRDGAWFAYWGQGTLVTVSA
VL: SLAVSAGEKVTMTCKSSQSVLYSSDHKNYLAWYQQKPGQSPKLLIYWASTRESGVPDRFTGSGSGTDFTLTINNVQTEDLAVYFCHQYLSSFTFGGGTKLEIQ

How the values were obtained:
[1] = tested on: human polyclonal IgM RF binding to mAb II-481; details: text summary across the individual polyclonal IgM RFs tested
gE of HSV-1 = experiment: ELISA of hybridoma supernatants with isolated gE and whole HSV-1; assay type: binding; details: hybridoma supernatant; isolated gE 5 ug/ml

| Molecule | inhibition of RF binding to mAb II-481 by single inhibitor [1] | reactivity with isolated gE and whole HSV-1 by ELISA (gE of HSV-1) |
| --- | --- | --- |
| CIKVAVS [reference compound] | No inhibition |  |
| HIWWNDN | 80-100% |  |
| SGVPDRF | 62-90% |  |
| B1 | complete inhibition | strong anti-gE specificity |

Reference: publication PMC2191741 (The Journal of Experimental Medicine, 1994)
